Activity calls are given as the source filed them. The calls are words filed in the database; no cut-off is given here.

The target in experiment [1] is Cellular tumor antigen p53/Replication protein A 70 kDa DNA-binding subunit (Homo sapiens, UniProt P04637+P27694). Description: Inhibition of GST-tagged p53/recombinant human N-terminal domain of RPA70 DNA binding domain interaction by ELISA-like plate binding assay. (In general: ELISA stands for enzyme-linked immunosorbent assay.)
For experiment [2], the target named is Replication protein A 70 kDa DNA-binding subunit (Homo sapiens) (UniProt P27694). Description: Inhibition of recombinant human N-terminal domain of RPA70 DNA binding domain-F binding to 30-mer single strand DNA at <100 uM preincubated for 5mins before ssDNA addition measured after 30 mins by electrophoretic mobility shift assay. (In general: Mobility shift assays separate free from complexed probe on a gel.)
Replication protein A 70 kDa DNA-binding subunit (Homo sapiens), sequence (P27694 whole entry, the tested form may be a part): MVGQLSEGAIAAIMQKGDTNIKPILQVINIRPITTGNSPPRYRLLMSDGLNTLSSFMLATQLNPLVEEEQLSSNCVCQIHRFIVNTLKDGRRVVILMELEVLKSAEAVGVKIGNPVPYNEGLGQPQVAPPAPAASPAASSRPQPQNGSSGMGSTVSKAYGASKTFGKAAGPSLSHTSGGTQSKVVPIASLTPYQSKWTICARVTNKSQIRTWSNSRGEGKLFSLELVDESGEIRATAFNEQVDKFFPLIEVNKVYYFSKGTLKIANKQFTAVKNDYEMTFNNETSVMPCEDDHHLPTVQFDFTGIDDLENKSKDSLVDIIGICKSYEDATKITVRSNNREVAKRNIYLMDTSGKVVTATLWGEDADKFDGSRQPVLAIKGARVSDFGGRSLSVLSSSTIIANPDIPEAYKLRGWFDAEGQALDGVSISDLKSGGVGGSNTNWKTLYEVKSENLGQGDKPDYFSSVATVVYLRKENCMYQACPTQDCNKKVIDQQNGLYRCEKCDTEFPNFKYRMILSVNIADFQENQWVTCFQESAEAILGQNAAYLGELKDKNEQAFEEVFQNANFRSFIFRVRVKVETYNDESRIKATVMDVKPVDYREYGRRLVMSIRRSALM

For experiment [3] the target is unchanged. Description: Inhibition of recombinant human N-terminal domain of RPA70 DNA binding domain-F binding to 30-mer double strand DNA at <100 uM preincubated for 5mins before dsDNA addition measured after 30 mins by electrophoretic mobility shift assay.

Cellular tumor antigen p53/Replication protein A 70 kDa DNA-binding subunit, sequence (P04637 whole entry, the tested form may be a part): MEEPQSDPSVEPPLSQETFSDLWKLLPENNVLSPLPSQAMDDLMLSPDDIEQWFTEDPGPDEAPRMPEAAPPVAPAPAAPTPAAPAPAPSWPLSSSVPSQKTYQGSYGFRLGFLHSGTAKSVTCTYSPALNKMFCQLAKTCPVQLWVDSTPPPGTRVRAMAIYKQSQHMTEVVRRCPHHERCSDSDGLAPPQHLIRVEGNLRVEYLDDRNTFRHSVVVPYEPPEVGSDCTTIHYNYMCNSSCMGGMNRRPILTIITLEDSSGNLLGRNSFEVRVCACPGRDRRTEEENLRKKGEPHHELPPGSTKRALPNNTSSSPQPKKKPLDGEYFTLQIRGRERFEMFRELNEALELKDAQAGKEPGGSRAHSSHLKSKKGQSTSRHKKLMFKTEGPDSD
Cellular tumor antigen p53/Replication protein A 70 kDa DNA-binding subunit, sequence (P27694 whole entry, the tested form may be a part): as the sequence (P27694 whole entry, the tested form may be a part) above

Turning to `CC(C)C1=CC23CCC4C(C)(C(=O)O)CCCC4(C)C2CC1C(C(=O)O)C3C(=O)O` (stereo not drawn), the IC50 in experiment [1] was 10 µM. The inhibition entry in experiment [2] is “inactive”. For the same molecule, the inhibition entry in experiment [3] was “Active”.

By IC50 is commonly meant the point on the concentration scale where inhibition reaches its midpoint.
